Measurements published in US20260234180A1, “AMINO ACID DERIVATIVE, PREPARATION METHOD THEREFOR, AND PHARMACEUTICAL COMPOSITION FOR TREATING HEPATITIS, COMPRISING SAME” (priority 2021, published 2026).

How the values were obtained:
Jurkat cell line = assay: Cytotoxicity, WST-1 cell viability; assay type: cell-based, human; conditions: 0.2 μM~50 μM, 24 and 48 hours
Description: For Example 1 (LCA-Ile), Example 44 (LCA-Val), Example 2 (UDCA-Ile), and Example 3 (UDCA-Val), cytotoxicity was evaluated in the Jurkat cell line, a human T lymphocyte-derived cell line. Jurkat cell lines were seeded at a density of 5×10^4 on a 96 well plate for overnight incubation, and each compound was treated at a concentration of 0.2 μM~50 μM for 24 or 48 hours. WST-1, a reagent for measuring cell viability, was loaded at 10 μl/well, and absorbance was measured at 440 nm using a microplate reader 2 hours later. The mean value of negative control (NC) group treated with only DMSO was calculated as 1 and the cytotoxicity for the remaining experimental group was evaluated.

[1] = biological target: T1, NTCP, HepG2-hNTCP-C4 cell line (Homo sapiens, UniProt Q14973); assay: Inhibition of binding of fluorescent-labeled PreS1 peptide, fluorescence imaging; conditions: 10 M and 50 PM; compared to the HBV-induced group solely treated with PreS1
T1 construct: expressed in transfected cells; host or cells: HepG2-hNTCP-C4 (HepG2 cells expressing human NTCP)
T1 sequence (Q14973 1-349): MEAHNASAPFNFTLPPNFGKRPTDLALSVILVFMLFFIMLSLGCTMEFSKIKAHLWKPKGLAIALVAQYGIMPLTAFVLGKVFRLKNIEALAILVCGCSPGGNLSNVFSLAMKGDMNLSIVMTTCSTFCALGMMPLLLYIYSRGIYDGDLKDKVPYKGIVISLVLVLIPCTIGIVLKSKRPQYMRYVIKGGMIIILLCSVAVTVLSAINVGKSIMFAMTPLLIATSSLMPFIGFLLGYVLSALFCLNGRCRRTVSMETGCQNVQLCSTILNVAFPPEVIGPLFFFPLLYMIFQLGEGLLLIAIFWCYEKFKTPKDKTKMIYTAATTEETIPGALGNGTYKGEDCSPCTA
Description: Specifically, after placing a cover slip coated with fibronectin on a 24 well plate, a HepG2-hNTCP-C4 cell line, which is a cell line expressing NTCP, was seeded at a density of 1×10^5, followed by incubation overnight. Thereafter, 20 nM PreS1 and the compounds in Examples 1, 8, 9, and 44 were treated by diluting in culture media at 4° C. at a concentration of 50 μM, respectively. After 2 hours, the media were suctioned, followed by washing twice with 4° C. PBS, fixation with 4% paraformaldehyde for 20 minutes, and washing twice with 4° C. PBS. Thereafter, 300 nM 4′,6-diamidino-2-phenylindole (DAPI) was treated to stain the nucleus for 20 minutes, and then washing was followed once with distilled water (DW) and twice with 4° C. PBS. Subsequently, 10 μl of mounting media was loaded onto a slide glass, and a cover slip was placed thereon for observation under a fluorescence microscope.
Green fluorescence may be observed when PreS1 binds to a cell line expressing NTCP by FITC conjugated to PreS1.

HBV virus = assay: HBV infection of HepG2-NTCP cells, HBeAg ELISA analysis; assay type: cell-based, hepatitis B virus (HBV); conditions: 20 μM, O.D. 450 nm
Description: Specifically, the HepG2-NTCP cell line was cultured on a 6-well plate, incubation was performed overnight, HBV inhibitors were treated at a concentration of 20 μM, and the positive control Myrcludex-B (MyrB) was treated at a concentration of 200 nM, followed by culture for 24 hours. After HBV infection into the cells to make HBV 3000 genome equivalent per ml/cell (Geq/cell), the cell culture medium was replaced (medium changing, MC) a day after the viral infection to remove the virus unattached to cell membranes. In order to measure an amount of virus that entered the cell, medium changing (MC) was performed once more 4 days after viral infection. 2 days after replacement, HBeAg ELISA analysis was performed using a supernatant, and Southern blot analysis was performed with cell pellets.
HBeAg ELISA analysis was performed using an HBeAg ELISA kit (sanbio, Wantai HBeAg ELISA, cat #WB-2496) for the supernatant obtained by the method in Experimental Example 4-1.
First, a negative control group (Mock), positive control group (MyrB), and samples according to the present disclosure were loaded, by 50 μl each to be triplicate, onto a 96-well plate coated with capture Ab. In this case, Example 1 (LCA-ILE), Example 44 (LCA-Val), Example 52 (LCA-Tyr), Example 51 (LCA-Ser), Example 55 (LCA-Glu), Example 2 (UDCA-Ile), Example 3 (UDCA-Val), Example 25 (LCA-Val-Trp), Example 10 (DCA-Ile), Comparative Example 1 (LCA), and Comparative Example 2 (UDCA) were used as the sample.
The HRP-conjugated detection antibody was loaded into each well by 50 μl, followed by a reaction at 37° C. for 30 minutes. Washing buffer (1×PBS, 0.5% Tween20) was added by 200 μl, and washing was performed 5 times. 50 μl of chromogen solution A and 50 μl of chromogen solution B were added to each well, and a reaction was carried out in the darkness at 37° C. for 15 minutes. The stop solution was added to each well by 50 μl each to stop the reaction, and the amount of HBeAg was measured by measuring the absorbance (optical density, O.D.) level in the 450 nm wavelength band.

Structure (SMILES) | cytotoxicity (Jurkat cell line) | binding between PreS1 and NTCP (green fluorescence imaging) [1] | HBeAg absorbance level relative to Comparative Example 1 (LCA) and Comparative Example 2 (UDCA) (HBV virus) | HBeAg absorbance level relative to the negative control group (Mock) (HBV virus)
CC(C)[C@H](NC(=O)CC[C@@H](C)[C@H]1CC[C@H]2[C@@H]3[C@@H](O)C[C@@H]4C[C@H](O)CC[C@]4(C)[C@H]3CC[C@]12C)C(=O)O [Example 3, (S)-2-((R)-4-((3R,5S,7S,8R,9S,10S,13R,14S,17R)-3,7-dihydroxy-10,13-dimethyl-hexadecahydro-1H-cyclopenta[a]phenanthren-17-yl)pentanamido)-3-methylbutanoic acid] | barely observed | inhibited in a concentration dependent manner | lower | relatively lower
CC[C@@H](C)[C@H](NC(=O)CC[C@@H](C)[C@H]1CC[C@H]2[C@@H]3CC[C@@H]4C[C@H](O)CC[C@]4(C)[C@H]3C[C@H](O)[C@]12C)C(=O)O [Example 10, (2S,3R)-2-((R)-4-((3R,5R,8R,9S,10S,12S,13R,14S,17R)-3,12-dihydroxy-10,13-dimethyl-hexadecahydro-1H-cyclopenta[a]phenanthren-17-yl)pentanamido)-3-methylpentanoic acid] | – | – | lower | relatively lower
CC[C@@H](C)[C@H](NC(=O)CC[C@@H](C)[C@H]1CC[C@H]2[C@@H]3[C@@H](O)C[C@@H]4C[C@H](O)CC[C@]4(C)[C@H]3CC[C@]12C)C(=O)O [Example 2, (2S,3R)-2-((R)-4-((3R,5S,7S,8R,9S,10S,13R,14S,17R)-3,7-dihydroxy-10,13-dimethyl-hexadecahydro-1H-cyclopenta[a]phenanthren-17-yl)pentanamido)-3-methylpentanoic acid] | barely observed | inhibited in a concentration dependent manner | lower | relatively lower
CC[C@@H](C)[C@H](NC(=O)CC[C@@H](C)[C@H]1CC[C@H]2[C@@H]3CC[C@@H]4C[C@H](O)CC[C@]4(C)[C@H]3CC[C@]12C)C(=O)O [Example 1, (2S,3R)-2-((R)-4-((3R,5R,8R,9S,10S,13R,14S,17R)-3-hydroxy-10,13-dimethyl-hexadecahydro-1H-cyclopenta[a]phenanthren-17-yl)pentanamido)-3-methylpentanoic acid] | barely observed | inhibited in a concentration dependent manner | lower | relatively lower
CC(C)[C@H](NC(=O)CC[C@@H](C)[C@H]1CC[C@H]2[C@@H]3CC[C@@H]4C[C@H](O)CC[C@]4(C)[C@H]3CC[C@]12C)C(=O)O [Example 44, (S)-2-((R)-4-((3R,5R,8R,9S,10S,13R,14S,17R)-3-hydroxy-10,13-dimethyl-hexadecahydro-1H-cyclopenta[a]phenanthren-17-yl)pentanamido)-3-methylbutanoic acid] | barely observed | inhibited in a concentration dependent manner | lower | relatively lower
